From US20230330094A1, “COMBINATION COMPOSITIONS AND METHODS FOR TREATING CANCER” (The Board of Supervisors of Louisiana State University and …, priority 2020, published 2023)
“Also recorded” adds a separate entry of the source.

Key:
[1] = tested on: recurrent GBM; details: single agent or in combination with chemotherapy; cited from earlier work
[2] = Physiological variables (body weight, temperature, survival) in GBM mouse model; assay type: in vivo
Protocol: Athymic nude female mice (Charles Rivers Laboratories and Envigo), 6 to 8 weeks of age, were anesthetized with a ketamine/xylazine cocktail solution (100 mg/kg; 10 mg/kg). Then, mice were secured in a stereotactic head frame and a midline 1 cm incision over the scalp was made. Natural tears lubricant was applied to the eyes. […] Rectal and cranial temperatures will be maintained at 36-37° C. during surgical procedure. The incision was closed using black monofilament nylon 5.0 sterile sutures and the area was cleaned with betadine solution. The mice were placed in individual cages and observed daily for weight, temperature, and locomotor changes. Mice were perfused at the end of the 30-day survival, brains removed and ex vivo MRI imaging were conducted.
Mice were anesthetized with a ketamine/xylazine cocktail solution (100 mg/kg; 10 mg/kg) and secured in a stereotactic head frame. A midline, 1 cm incision was made over the scalp. Natural tear lubricant was applied to the eyes. For each mouse, 5 × 10^6 U87MG cells in 5 µL serum-free Dulbecco’s Modified Eagle Medium (DMEM) were injected into the right hippocampus using a 10 µL Hamilton syringe at the following coordinates related to the bregma: 1.5 mm lateral, 1.5 mm posterior, and 3.5 mm in depth. […]

[3] = tested on: luciferase-modified U87MG tumor cells; assay: In vivo bioluminescent imaging of intracranial tumor growth, orthotopic GBM mouse model; details: imaging days 13, 20 and 30; vs saline/vehicle
[4] = tested on: luciferase-modified U87MG tumor cells; assay: Ex vivo T1-weighted MRI tumor volume, orthotopic GBM mouse model; assay type: in vivo; details: day 30, ex vivo MRI; vs saline
Protocol: Athymic nude female mice (Charles Rivers Laboratories and Envigo), 6 to 8 weeks of age, were anesthetized with a ketamine/xylazine cocktail solution (100 mg/kg; 10 mg/kg). Then, mice were secured in a stereotactic head frame and a midline 1 cm incision over the scalp was made. Natural tears lubricant was applied to the eyes. For each mouse, 5 × 10^6 U87MG cells in 5 µL serum free Dulbecco’s Modified Eagle Medium (DMEM) tagged with a luciferase […] gene were implanted into the right hippocampus using a 10 µL Hamilton syringe at the following coordinates, in reference to the bregma: 1.5 mm lateral, 1.5 mm posterior and 3.5 mm in depth; the needle was lowered to 3.5 mm and pulled up by 1 mm, prior to the injection (Marrero et al., 2014) (FIG. 1B). Rectal and cranial temperatures will be maintained at 36-37° C. during surgical procedure. […]
Treatment was administered starting on day 13 after implantation, and intracranial tumor growth was quantified using in vivo bioluminescent imaging on days 13 (before treatment) and then 20 and 30. […]
Cheshire image processing software (Hayden Image/Processing Group, Waltham, MA), was used to manually outline whole brain and tumor volumes enhanced by Gd deposition. […] Whole brain and tumor volumes (mm^3) were extracted and analyzed (Jeffes et al., 2005; Blasiak et al., 2013). […]

[5] = molecular target: T1, P2×2 (Homo sapiens, UniProt Q9UBL9); details: cited from earlier work
T1 sequence (Q9UBL9 1-471): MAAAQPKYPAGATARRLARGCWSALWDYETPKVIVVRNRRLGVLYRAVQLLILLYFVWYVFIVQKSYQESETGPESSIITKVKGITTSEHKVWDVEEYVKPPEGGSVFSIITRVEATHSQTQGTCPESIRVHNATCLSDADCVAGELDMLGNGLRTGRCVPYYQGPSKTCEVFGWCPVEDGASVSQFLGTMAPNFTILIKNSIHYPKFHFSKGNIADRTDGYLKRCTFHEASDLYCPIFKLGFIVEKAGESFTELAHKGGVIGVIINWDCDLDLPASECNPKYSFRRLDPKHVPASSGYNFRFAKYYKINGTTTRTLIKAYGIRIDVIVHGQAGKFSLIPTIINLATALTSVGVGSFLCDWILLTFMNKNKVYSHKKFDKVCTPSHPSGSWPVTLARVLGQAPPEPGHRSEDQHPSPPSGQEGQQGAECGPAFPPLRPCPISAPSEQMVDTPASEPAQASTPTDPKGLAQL

[6] = molecular target: P2Y4 (Homo sapiens, UniProt P51582); details: cited from earlier work
[7] = tested on: P2Xs; details: cited from earlier work
[8] = molecular target: P2Y 2 (Homo sapiens, UniProt P41231); details: cited from earlier work
P2Y 2, sequence (P41231 whole entry, species assumed): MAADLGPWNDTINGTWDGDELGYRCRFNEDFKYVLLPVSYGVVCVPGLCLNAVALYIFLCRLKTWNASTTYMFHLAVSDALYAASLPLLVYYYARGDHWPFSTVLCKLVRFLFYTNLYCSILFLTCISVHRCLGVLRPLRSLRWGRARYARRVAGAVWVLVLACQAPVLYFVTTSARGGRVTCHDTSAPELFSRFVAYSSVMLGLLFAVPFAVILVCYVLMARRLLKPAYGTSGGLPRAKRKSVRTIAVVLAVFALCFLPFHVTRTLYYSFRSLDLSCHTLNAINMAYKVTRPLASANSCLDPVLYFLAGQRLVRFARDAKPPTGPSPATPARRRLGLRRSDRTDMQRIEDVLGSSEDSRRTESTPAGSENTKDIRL

P2Y4, sequence (P51582 whole entry, species assumed): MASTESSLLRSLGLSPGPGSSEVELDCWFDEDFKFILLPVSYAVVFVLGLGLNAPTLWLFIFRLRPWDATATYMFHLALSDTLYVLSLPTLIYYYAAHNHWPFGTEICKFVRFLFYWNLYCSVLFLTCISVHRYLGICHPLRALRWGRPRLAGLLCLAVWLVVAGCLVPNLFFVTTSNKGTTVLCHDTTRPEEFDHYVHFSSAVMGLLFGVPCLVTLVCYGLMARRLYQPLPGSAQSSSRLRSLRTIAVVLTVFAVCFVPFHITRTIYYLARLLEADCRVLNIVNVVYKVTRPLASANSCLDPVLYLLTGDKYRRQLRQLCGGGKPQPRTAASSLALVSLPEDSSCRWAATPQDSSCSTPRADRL

Compound: Avastin: recombinant humanized anti-VEGF monoclonal antibody
- Radiographic response rate [1]: up to 40%
- Survival ([2]; 30-day survival period): improved survival
- Change in rectal temperature compared to vehicle ([2]; during the 30 days of survival): No significant changes
- Bioluminescent tumor growth/size vs vehicle (in words) [3]: reduced tumor size; also recorded: repress orthotopic GBM; also recorded: significantly reduced tumorigenesis; also recorded: significant reduction in growth and size
- MRI (T1WI) tumor volume reduction compared to vehicle [4]: 67%
- MRI (T1WI) tumor volume vs vehicle (in words) [4]: reduced GBM tumor volumes

Compound: Cc1ccc(C(=O)Nc2ccc(S(=O)(=O)O)c3cc(S(=O)(=O)O)cc(S(=O)(=O)O)c23)cc1NC(=O)c1cccc(NC(=O)Nc2cccc(C(=O)Nc3cc(C(=O)Nc4ccc(S(=O)(=O)O)c5cc(S(=O)(=O)O)cc(S(=O)(=O)O)c45)ccc3C)c2)c1 [Suramin]
- pEC50 (P2×2) [5]: 4.5
- pEC50 (P2Y4) [6]: 4.0
- pEC50 (P2Xs) [7]: 5.4
- pEC50 (P2Y 2) [8]: 4.3
